How the values were obtained:
[1] = system: HT22 cells; assay: Glutamate-induced neural oxidative stress injury model in HT22 cells, survival by MTT; format: cell-based, Mouse; settings: 5 mM glutamate added with compound at 1, 10, 50 or 100 μM, MTT after 24 h
Experimental: Mouse Hippocampal neuron cell line HT22, 24-well culture plate (Corning), glutamic acid (Glutamate, Sigma), DMEM culture medium (GIBCO), fetal bovine serum (GIBCO), 3-(4,5-dimethylthiazol-2-yl)-2,5-diphenyltetrazolium bromide (MTT, Sigma), dimethyl sulfoxide (Sinopharm Group. Co. Ltd.), and microplate reader (TECAN).
2.1. Cell culture: HT22 cells were taken out of the liquid nitrogen container, and thawed quickly in a water-bath at 37° C. After that, the outside wall of cryopreservation tube was disinfected by alcohol wipes, and it was then placed in a clean bench. The cells were transferred to a centrifuge tube containing 10 ml medium and centrifuged at 1000 rpm for 3 min. After centrifugation, the supernatant was discarded, and 10 mL DMEM containing 10% FBS was added to the centrifuge tube. The mixture was vigorously pipetted to prepare a cell suspension. The cell suspension was inoculated to a 100×20 mm Petri dish. Cells were cultured at 37° C. and 5% CO2. When the cell density reached confluent, the cells were digested and seeded onto the wells of a 24-well plate at the density of 2×10^4/well.
2.2. Treatment and groups: after the cells were cultured in the 24-well plate for 24 hours, 5 mM glutamate was added together with the compound each synthesized in Example 1-10 or Example 13 at a final concentration of 1, 10, 50, or 100 μM. DMSO served as vehicle and was added to the cells of the control group at an equal volume. The viability of the cells was detected by MTT method 24 h after the treatment.
2.3. Detection by MTT: 50 μL, 0.5 mg/ml MTT was added to each well 24 h after the treatment of cells. The cells were further incubated at 37° C. and 5% CO2 for 4 h. Subsequently, the supernatant was discarded. The cells were lysed by adding 500 μL dimethyl sulfoxide (DMSO). The absorbance was detected at 570 nm by a microplate reader, which is positively correlated with survival rate of cells. The survival rate of the cells in the treatment groups was expressed as the percent of the survival rate of the cells without glutamate treatment. All data were expressed as mean±standard deviation (SD). Statistical analysis was carried out for all data using SPSS 17.0. The difference between the groups was tested by one way anova. P<0.01 was considered as very significant difference.

[2] = system: microglia cell line BV2; assay: LPS-induced inflammatory response of microglia, nitrite by Griess reagent; format: cell-based; settings: 200 ng/mL LPS, 24 h, compound at 10-100 μM, vs LPS alone, p<0.01
Experimental: Brain microglia cell line BV-2, 96-well culture plate (Corning, USA), DMEM medium (Hyclone, USA), fetal bovine serum (FBS) (GIBCO, USA), dimethyl sulfoxide (DMSO) (SIGMA, USA), Griess reagent (SIGMA, USA), sodium nitrite (ChemNet, China), microplate reader (BIO-RAD, USA)
2.1. Cell cultures: After taken out of the liquid nitrogen container, BV-2 cells were quickly placed in warm water at 37° C. and gently shaken for thawing. Subsequently, it was centrifuged at 1000 rpm for 3 min, and the supernatant was discarded. […] When 60%-70% of confluence of the passaged cells was achieved, the cells were harvested by centrifugation at 1000 rpm for 3 min. The cells were then stained by trypan blue and counted under a microscope by globulimeter. After cell counting, it was diluted into a suspension containing 150 to 200 thousand of cells/ml, which was then plated in the 96-well plate (15 to 20 thousand of […]).
2.2. Treatment and groups: after the cells were cultured in the […] for 24 h, 200 ng/mL LPS was added together with compound YC1-1 of Example 1, YC1-8 of Example 8 and YC2-2 of Example 12 at a final concentration of 1, 10, 50, or 100 μM. DMSO served as vehicle and was added to the cells of control group at the equal volume. The cells were further incubated in an incubator.
2.3. The amount of nitrite produced was detected 24 h after the atreatment, to characterize the inflammatory response of BV2 cells induced by LPS and the inhibitory effect of compound YC1-1 of Example 1 and compound YC1-8 of Example 8 on the LPS-induced inflammatory response.
Detection method of nitrite: […], supernatant was taken out of the wells of 96-well plate, and added to the corresponding wells of another clean 96-well plate. Subsequently, 50 μL Griess reagent was added to each well, and the OD value was detected at 570 nm. The amount of nitrite was calculated based on the standard curve. The result was expressed as the relative yield of nitrite, wherein the relative yield of the control group treated only by LPS was designated as 1. All data were expressed as mean±standard deviation (SD). […]

[3] = system: mouse middle cerebral artery occlusion model; assay: Mouse middle cerebral artery occlusion (MCAO) model, infarct volume by TTC staining; format: in vivo; settings: half at 3 h and half at 10 h of reperfusion, 24 h after MCAO, vs vehicle, p<0.05
Experimental: Male ICR mice (body weight of 30±2.0 g) were purchased from Shanghai Laboratory Animal Center, Chinese Academy of Sciences. The mice were raised at room temperature and 12 h cycle of light and dark, with free access to food and water.
2.1. Middle cerebral artery occlusion (MCAO) model: the middle cerebral artery occlusion (MCAO) model was performed by reference to Longa's method or other modified suture-occluded method. The specific experimental procedures were as follows: after anaesthetized by isoflurane, the mouse was fixed in supine position, and the skin of neck and head was sterilized using iodine. The probe of laser-Doppler blood flowmeter was fixed at the midpoint of the line between the ear and the eye on the right side of the mouse to monitor the real-time perfusion in the cerebral cortex. A 1.5 cm incision was made in the middle of the neck to expose common carotid artery on the right side. Tissues were separated under an operating microscope layer by layer. The common carotid artery was first separated which was temporarily ligated 0.5 cm away from the distal end using 5-0 suture. Then, the external carotid artery and internal carotid artery on the right side were subsequently separated and the external carotid artery was ligated 0.5 cm away from the distal end using 5-0 suture. At the same time, the internal carotid artery was temporarily clamped using a mini vascular clamp. Subsequently, a small incision was made by an ophthalmic scissor on the inner side of the ligation at the distal end of the external carotid artery. To occlude the […], one of the ends of the suture was slightly enlarged by heating, coated by silica gel, and sterilized using alcohol. The length of the suture was about 2 cm, and the diameter of the enlarged end was […]. The suture was held using a fine forceps and inserted into the incision on the external carotid artery.). Once the suture passed through the incision of the external carotid artery, the ligation was lifted at the distal end of external carotid artery until the enlarged end of the suture entered the bifurcation of the […]. The suture was then tightened, and the vascular clamp on the internal carotid artery was opened. […] The starting time for occlusion was recorded. For reperfusion, the suture was withdrawn 60 min after middle cerebral artery occlusion. The rectal temperature was maintained at 37.0±0.5° C. by a heating blanket during and after the surgery, until the animal was revived.
2.2 Animal groups and drug administration: the animals were randomly divided into 3 groups, including control group treated with vehicle, YC1-8 group (100 mg/kg) and YC1-8 group (50 mg/kg). There were 8 mice in each group. 12 mg YC1-8 was initially dissolved by 80 μL DMSO, and then diluted by 920 μL corn oil to prepare a solution with the final concentration of 12 mg/mL. One half of dosage of compound YC1-8 was initially administrated at 3 h of reperfusion after ischemia by intraperitoneal injection, while the other half of dosage was administrated at 10 h of reperfusion after ischemia. For the control group, the same volume of DMSO-containing corn oil was administrated to the mice at 3 h and 10 h.
2.3. Detection of the cerebral infarct volumes: 24 h after reperfusion following mouse middle cerebral artery occlusion (MCAO), the mice were sacrificed under anesthetized and the brain was collected. After the brain tissue was stripped off, the olfactory bulb and cerebellum were removed. A series of 5 coronary sections of brain were made at an interval of 1 mm, which were then placed in 2% TTC solution at 37° C. under darkness in a warm bath. The sections were turned over every 15 min, with a total duration of 30 min. The size of cerebral infarction was determined by TTC staining method. Due to the reduction of TTC by […] in mitochondrion, normal brain tissue was red, and the ischemic infarct area was white. […]

SMILES | Concentration range for protection [1] [µM] | other results
Oc1ccc(-c2cc(=S)ss2)cc1 [YC1-1, 5-p-hydroxyphenyl-3H-1,2-dithiacyclopentene-3-thione] | 10 to 100 | LPS induced inflammatory response of BV2 cells (nitrite production) [2]: significantly inhibited
Fc1ccc(-c2cc(=S)ss2)cc1 [YC1-2, 5-p-fluorophenyl-3H-1,2-dithiacyclopentene-3-thione] | 10 to 100 | 
S=c1cc(-c2cccs2)ss1 [YC1-3, 5-(2-thienyl)-3H-1,2-dithiacyclopentene-3-thione] | 10 to 100 | 
Cc1ccc(-c2cc(=S)ss2)cc1 [YC1-4, 5-p-methylphenyl-3H-1,2-dithiacyclopentene-3-thione] | 10 to 100 | 
Fc1cc(-c2cc(=S)ss2)c(Cl)cc1Cl [YC1-5, 5-(2,4-dichloro-5-fluorophenyl)-3H-1,2-dithiacyclopentene-3-thione] | 1 to 100 | 
S=c1cc(-c2ccc3c(c2)OCO3)ss1 [YC1-6, 5-(3,4-methylenedioxyphenyl)-3H-1,2-dithiacyclopentene-3-thione] | 1 to 100 | 
COc1ccc(-c2cc(=S)ss2)c(OC)c1 [YC1-7, 5-(2,4-dimethoxyphenyl)-3H-1,2-dithiacyclopentene-3-thione] | 1 to 100 | 
COc1ccc(-c2cc(=S)ss2)cc1 [YC1-8, 5-p-methoxyphenyl-3H-1,2-dithiacyclopentene-3-thione] | 10 to 100 | infarction volume in cerebral cortex ([3]; 50 mg/kg YC1-8 i.p.): significantly reduced; infarction volume in hemisphere ([3]; 50 mg/kg YC1-8 i.p.): significantly reduced; infarction volume in striatum ([3]; 50 mg/kg YC1-8 i.p.): significantly reduced; infarction volume in cerebral cortex ([3]; 100 mg/kg YC1-8 i.p.): significantly reduced; infarction volume in hemisphere ([3]; 100 mg/kg YC1-8 i.p.): significantly reduced; infarction volume in striatum ([3]; 100 mg/kg YC1-8 i.p.): significantly reduced; LPS induced inflammatory response of BV2 cells (nitrite production) [2]: significantly inhibited
S=c1cc(-c2ccccc2)ss1 [YC1-9, 5-phenyl-3H-1,2-dithiacyclopentene-3-thione] | 1 to 100 | 
S=c1cc(-c2ccc3ccccc3c2)ss1 [YC1-10, 5-(2-naphthyl)-3H-1,2-dithiacyclopentene-3-thione] | 1 to 100 | 
CC(=O)Oc1ccccc1C(=O)Oc1ccc(-c2cc(=S)ss2)cc1 [YC2-2, 4-(3H-1,2-dithio-3-thioketone-5-yl)phenyl 2-acetoxy benzoate] |  | LPS induced inflammatory response of BV2 cells (nitrite production) [2]: significantly inhibited
O=C(Oc1ccc(-c2cc(=S)ss2)cc1)c1cccnc1 [YC2-3, 4-(3H-1,2-dithio-3-thioketone-5-yl)phenyl pyridine-3-carboxylate] | 50 to 100 | 
